The source of these data is paper PMC6152134, “Synthesis and In Vitro Anticancer Activity of Novel Dehydroabietic Acid-Based Acylhydrazones” (Molecules : A Journal of Synthetic Chemistry and Natural …, 2017).

Usually IC50 stands for the concentration at which inhibition is half-maximal. The melting point is the temperature of the solid-liquid transition.

The subject of series [1] is BEL-7402 (liver) human carcinoma cell line. Description: MTT cytotoxicity assay, BEL-7402 cells. Format: cell-based. The following applies: Homo sapiens, 48 h exposure. How it is done:
(§1) Compounds 4a–x were evaluated for their cytotoxic activity in vitro against the human cancer cell lines, CNE-2, HepG2, HeLa, and BEL-7402 by using a 3-(4,5-dimethylthiazol-2-yl)-2,5-diphenyl tetrazolium bromide (MTT) colorimetric assay. Cisplatin was included in the experiments as a positive control, and the IC50 of DHA is also presented to compare the anticancer activities. The calculated IC50 values were reported differently according to the different cancer cells.
(§2) The CNE-2, HepG2, HeLa, and BEL-7402 cell lines used in this work were all purchased from the Institute of Biochemistry and Cell Biology, China Academy of Sciences. All were supplemented with 10% heat-inactivated fetal bovine serum in a humidified atmosphere of 5% CO2/95% air at 37 °C. In order to investigate the potential of compounds 4, cisplatin, a commercial classical anticancer drug was used as a reference drug. CNE-2, HepG2, HeLa, and BEL-7402 cells were seeded into 96-well microculture plates and allowed to adhere for 24 h, respectively. After cells were exposed to compounds at concentrations from 100 to 0.1 μM for 48 h, medium was aspirated and replenished with complete medium. IC50 values was evaluated by MTT tetrazolium dye assay. All the tests were repeated in at least three independent experiments. The IC50 values of the compounds were calculated using SPSS Version 10 software (IBM, New York, NY, USA), which defined the IC50 value as the concentration required to inhibit cell growth by 50%.

Series [2] concerns CNE-2 (nasopharynx) human carcinoma cell line. Kind of series: MTT cytotoxicity assay, CNE-2 cells. It counts as cell-based. The following applies: Homo sapiens, 48 h exposure. How it is done:
as §1, §2
Background: Tetrazolium assays rely on reduction of a dye to a coloured formazan, in cell work by metabolically active cells.

Series [3] concerns HepG2 (liver) human carcinoma cell line. Kind of series: MTT cytotoxicity assay, HepG2 cells. Format: cell-based. Conditions: 48 h exposure. Here is the method:
as §1, §2

For series [4], the system named is HeLa (epithelial cervical) human carcinoma cell line. Description: MTT cytotoxicity assay, HeLa cells. It counts as cell-based. Conditions: 48 h exposure. Here is the method:
as §1, §2

Series [5] relates to HL-7702 normal human liver cell line. Kind of series: MTT cytotoxicity assay, HL-7702 normal liver cells. It counts as cell-based. Conditions: L02, normal human liver cell HL-7702.

As for `CC(C)c1ccc2c(c1)CCC1C(C)(C(=O)OCC(=O)NN=Cc3ccccc3)CCCC21C` (centres unmarked) [4a], the melting point lay in the range of 155.1 to 156.7 °C. The same compound yielded a half-maximal inhibitory concentration (IC50) in series [1] of 36.7 ± 0.34 µM. The compound further yielded an IC50 in series [2] of 28.2 ± 0.43 µM. In series [3] (Homo sapiens, HepG2, 48 h), this compound showed a concentration for half-maximal inhibition (IC50) of 27.8 ± 0.58 µM. The same compound returned an IC50 in series [4] (Homo sapiens, HeLa, 48 h) of 17.89 ± 0.13 µM. Further, the half-maximal inhibitory concentration (IC50) in series [5] was more than 100 µM.

As to `Cc1ccc(C=NNC(=O)COC(=O)C2(C)CCCC3(C)c4ccc(C(C)C)cc4CCC23)cc1` (centres unmarked) [4b], the melting point lay in the range of 170 to 172.1 °C. Moreover, in series [1], the IC50 came to 15.38 ± 0.08 µM. Besides, the IC50 in series [2] stood at 17.2 ± 0.21 µM. For the same compound, in series [3] (Homo sapiens, HepG2, 48 h), the IC50 came to 12.4 ± 0.31 µM. In series [4] (Homo sapiens, HeLa, 48 h), this compound had a half-inhibitory concentration (IC50) of 6.72 ± 0.22 µM. In series [5], this compound yielded an IC50 of 68.6 ± 2.14 µM.

Regarding `CC(C)c1ccc2c(c1)CCC1C(C)(C(=O)OCC(=O)NN=C/C=C/c3ccccc3)CCCC21C` (centres unmarked) [4c, N’-(3-Phenylallylidene)-2-(dehydroabietyloxy)acetohydrazide], the melting point fell in the range of 185.7 to 187.3 °C. The compound further gave a half-maximal inhibitory concentration (IC50) in series [1] of 21.03 ± 0.09 µM. The compound further showed an IC50 in series [2] of 15.8 ± 0.56 µM. In addition, the IC50 in series [3] (Homo sapiens, HepG2, 48 h) stood at 27.6 ± 0.23 µM. The compound also had an IC50 in series [4] (Homo sapiens, HeLa, 48 h) of 10.8 ± 0.43 µM. In series [5], the IC50 came to 53.2 ± 1.36 µM.

Take `COc1cc(C=NNC(=O)COC(=O)C2(C)CCCC3(C)c4ccc(C(C)C)cc4CCC23)ccc1O` (centres unmarked) [4d]: the melting point is 117.6 to 119 °C. The compound also returned an IC50 in series [1] of 33.6 ± 0.38 µM. The same compound had an IC50 in series [2] of 38.7 ± 0.49 µM. The same compound had a half-maximal inhibitory concentration (IC50) in series [3] (Homo sapiens, HepG2, 48 h) of 35.26 ± 0.11 µM. Further, the concentration for half-maximal inhibition (IC50) in series [4] (Homo sapiens, HeLa, 48 h) is 12.22 ± 0.08 µM. Further, the 50% inhibitory concentration (IC50) in series [5] is 50.7 ± 1.82 µM.

In turn, `CC(C)c1ccc2c(c1)CCC1C(C)(C(=O)OCC(=O)NN=Cc3ccc(N(C)C)cc3)CCCC21C` (centres unmarked) [4e] gave a melting point of 163.4 to 164.7 °C. The same compound displayed a half-maximal inhibitory concentration (IC50) in series [1] of 15.6 ± 0.44 µM. This compound registered an IC50 in series [2] of 48.85 ± 0.05 µM. The compound further displayed an IC50 in series [3] (Homo sapiens, HepG2, 48 h) of 7.62 ± 0.32 µM. Moreover, it took 34.92 ± 0.16 µM to reach half-maximal inhibition in series [4] (Homo sapiens, HeLa, 48 h) (IC50). In series [5], this compound had an IC50 of 63 ± 3.06 µM.

`CC(C)c1ccc2c(c1)CCC1C(C)(C(=O)OCC(=O)NN=Cc3ccco3)CCCC21C` (centres unmarked) [4f] displayed a melting point of 125.7 to 126.4 °C. Moreover, the IC50 in series [1] turned out to be 16.9 ± 0.41 µM. Moreover, the midpoint of inhibition in series [2], the IC50, lay at 51.39 ± 0.34 µM. This compound gave an IC50 in series [3] (Homo sapiens, HepG2, 48 h) of 25.6 ± 0.35 µM. In series [4] (Homo sapiens, HeLa, 48 h), the midpoint of inhibition, the IC50, lay at 33.23 ± 0.21 µM. In series [5], the IC50 worked out at 61.9 ± 1.34 µM.

Consider `CC(C)c1ccc2c(c1)CCC1C(C)(C(=O)OCC(=O)NN=Cc3ccccc3O)CCCC21C` (centres unmarked) [4g], for which the melting point was in the range of 214.9 to 215.6 °C. Half-maximal inhibition in series [1] (IC50) required 36.4 ± 0.74 µM. In series [2], the IC50 came out at 60.4 ± 1.02 µM. In addition, in series [3] (Homo sapiens, HepG2, 48 h), the IC50 was determined as 12.5 ± 0.46 µM. For the same compound, it took 27.3 ± 0.5 µM to reach half-maximal inhibition in series [4] (Homo sapiens, HeLa, 48 h) (IC50). Further, the IC50 in series [5] was more than 100 µM.

Turning to `CC(C)c1ccc2c(c1)CCC1C(C)(C(=O)OCC(=O)NN=Cc3ccccc3[N+](=O)[O-])CCCC21C` (centres unmarked) [4h], the melting point was in the range of 94.9 to 96.7 °C. In series [1], this compound showed an IC50 of 38.5 ± 0.52 µM. In series [2], it took 98.78 ± 0.45 µM to reach half-maximal inhibition (IC50). Moreover, the IC50 in series [3] (Homo sapiens, HepG2, 48 h) worked out at 44.6 ± 0.92 µM. The same compound had an IC50 in series [4] (Homo sapiens, HeLa, 48 h) of 15.2 ± 0.29 µM. The compound also showed an IC50 in series [5] of more than 100 µM.

As for `CC(C)c1ccc2c(c1)CCC1C(C)(C(=O)OCC(=O)NN=Cc3cccc([N+](=O)[O-])c3)CCCC21C` (centres unmarked) [4i], the melting point was 99.6 to 101.9 °C. In addition, the IC50 in series [1] was 44.65 ± 0.21 µM. Also, in series [2], the concentration for half-maximal inhibition (IC50) was 12.6 ± 0.24 µM. The IC50 in series [3] (Homo sapiens, HepG2, 48 h) was 57.8 ± 0.75 µM. This compound also registered an IC50 in series [4] (Homo sapiens, HeLa, 48 h) of 13.9 ± 0.41 µM. For the same compound, the IC50 in series [5] is 77.1 ± 0.96 µM.

`CC(C)c1ccc2c(c1)CCC1C(C)(C(=O)OCC(=O)NN=Cc3ccc([N+](=O)[O-])cc3)CCCC21C` (centres unmarked) [4j]: the melting point lay in the range of 177.2 to 179.8 °C. In series [1], this compound came in with a concentration for half-maximal inhibition (IC50) of 27.45 ± 0.17 µM. Moreover, half-maximal inhibition in series [2] (IC50) was put at 93.26 ± 0.52 µM. The compound also registered an IC50 in series [3] (Homo sapiens, HepG2, 48 h) of 39.5 ± 0.82 µM. In series [4] (Homo sapiens, HeLa, 48 h), this compound returned a 50% inhibitory concentration (IC50) of 13.06 ± 0.08 µM. Besides, the half-inhibitory concentration (IC50) in series [5] was more than 100 µM.

`CC(C)c1ccc2c(c1)CCC1C(C)(C(=O)OCC(=O)NN=Cc3ccccc3Br)CCCC21C` (centres unmarked) [4k, N’-(2-Bromobenzylidene)-2-(dehydroabietyloxy)acetohydrazide]: the melting point lay in the range of 184.9 to 185.7 °C. Also, half-maximal inhibition in series [1] (IC50) was put at 48.16 ± 0.32 µM. This compound registered a half-inhibitory concentration (IC50) in series [2] of 47.7 ± 0.23 µM. Besides, 8.47 ± 0.55 µM corresponded to half-maximal inhibition in series [3] (IC50). Besides, the IC50 in series [3] (Homo sapiens, HepG2, 48 h) was less than 10 µM. In series [4], this compound displayed a half-maximal inhibitory concentration (IC50) of 5.53 ± 0.04 µM. Further, the IC50 in series [4] (Homo sapiens, HeLa, 48 h) was less than 10 µM. Further, the 50% inhibitory concentration (IC50) in series [5] worked out at 65.9 ± 1.48 µM.

Consider `CC(C)c1ccc2c(c1)CCC1C(C)(C(=O)OCC(=O)NN=Cc3cccc(Br)c3)CCCC21C` (centres unmarked) [4l], for which the melting point lay within 178.3 to 179.8 °C. The compound also came in with an IC50 in series [1] of 19.9 ± 0.27 µM. The compound also displayed an IC50 in series [2] of 11.45 ± 0.11 µM. In addition, in series [3] (Homo sapiens, HepG2, 48 h), 35.1 ± 0.96 µM corresponded to half-maximal inhibition (IC50). In series [4] (Homo sapiens, HeLa, 48 h), this compound returned an IC50 of 25.14 ± 0.1 µM. The midpoint of inhibition in series [5], the IC50, lay at 86.4 ± 3.12 µM.
